Values of other authors in article PMC6245954 (European journal of medicinal chemistry, 2018).

How the values were obtained:
[1] = in words; cited from earlier work
prostate cancer = conditions: cited from earlier work
[2] = tested on: two prostate cancer xenografts; conditions: even at the highest dose (0.73 mmol/kg); cited from earlier work

COc1cc(-c2oc3ccccc3c(=O)c2O)cc(OC)c1OC [Compd 3, 3′,4′,5′-trimethoxyflavonol]
bioavailability [1]: poor bioavailability
fold greater potency than quercetin (1) and fisetin (2) (prostate cancer): 5- to 16 fold
in vivo antitumor efficacy [2]: very moderate
